# From paper PMC4279419, “Angiostatic, tumor inflammatory and anti-tumor effects of CXCL4^47–70 and CXCL4L1^47–70 in an EGF-dependent breast cancer model” (Oncotarget, 2014)
# Where no end group is shown, it is not given here.
# Legend:
# B16 melanoma = conditions: previous study by our group; cited from earlier work
# Text: The chemokines CXCL4 and CXCL4L1 have both been attributed anti-tumoral activity as a result of angiostatic action, blockade of lymphatic vessel formation and the attraction of anti-tumoral lymphocytes. CXCL4L1 is considered to be a more powerful angiostatic and anti-tumoral agent than its homologue CXCL4, despite their striking 96% sequence identity. This functional difference has been linked to a single amino acid replacement, causing CXCL4L1 to adapt a unique carboxy-terminal 3D-structure with decreased affinity for GAGs. However, the causal link ...
# NOS2 = experiment: qPCR tumor NOS2 mRNA (M1 marker); format: in vivo, murine; conditions: 2.5 μg intratumoral 3×/week; 2^−ΔΔCT; not reaching statistical significance
# Experimental: The RNeasy Mini Kit (QIAGEN, Venlo, the Netherlands) was used for tumor mRNA extraction. The extracted mRNA was then converted to cDNA making use of the High Capacity cDNA Reverse Transcription Kit (Applied Biosystems, Foster City, CA). Quantitative polymerase chain reactions (qPCR) based on the TaqMan principle were conducted to compare gene expression between samples. Primers and probes (Table 2; Integrated DNA Technologies, Haasrode, Belgium), were diluted to the prescribed working concentrations in RNase-free water and added to the reaction mix in a MicroAmp® fast optical 96-well reaction plate (Applied Biosystems), together with 50 ng sample cDNA per reaction. The actual thermocycler program consisted of 2 minutes on 50 °C, 10 minutes on 95 °C and 40 cycles of 15 seconds on 95 °C followed by 1 minute on 60 °C. Analysis of the obtained CT was based on the 2^−ΔΔC^T method, opting for 18S ribosomal 1 RNA as an internal control.
Substance,effect in treatment of B16 melanoma (B16 melanoma),NOS2 mRNA versus control (NOS2)
"CXCL4L1^47–70: synthetic human carboxy-terminal peptide restricted to the last 24 amino acids of CXCL4L1, Fmoc chemistry",beneficial effects of CXCL4L1^47–70,
"CXCL4^47–70: synthetic human carboxy-terminal peptide restricted to the last 24 amino acids of CXCL4, Fmoc chemistry (NGRKICLDLQAPLYKKIIKKLLES; not fully specified (N-terminus))",,only modestly increased
